From publication PMC5538713, “RORγt and RORα signature genes in human Th17 cells” (PLoS ONE, 2017)
Read-outs that look alike come from different tables or passages of the source.

Key:
Assay in all cases: Cerep selectivity panel
Assay type in all cases: binding
K Channel = tested on: K Channel
Na+ Channel = tested on: Na+ Channel
SK+ Ca = tested on: SK+ Ca
ETA (h) = molecular target: T1, ETA (h) (Homo sapiens, UniProt P25101); conditions: for inhibition at 10 µM: read-out: % Inhibition at 10µM
T1 construct: purchased Cerep
T1 sequence (P25101 21-427): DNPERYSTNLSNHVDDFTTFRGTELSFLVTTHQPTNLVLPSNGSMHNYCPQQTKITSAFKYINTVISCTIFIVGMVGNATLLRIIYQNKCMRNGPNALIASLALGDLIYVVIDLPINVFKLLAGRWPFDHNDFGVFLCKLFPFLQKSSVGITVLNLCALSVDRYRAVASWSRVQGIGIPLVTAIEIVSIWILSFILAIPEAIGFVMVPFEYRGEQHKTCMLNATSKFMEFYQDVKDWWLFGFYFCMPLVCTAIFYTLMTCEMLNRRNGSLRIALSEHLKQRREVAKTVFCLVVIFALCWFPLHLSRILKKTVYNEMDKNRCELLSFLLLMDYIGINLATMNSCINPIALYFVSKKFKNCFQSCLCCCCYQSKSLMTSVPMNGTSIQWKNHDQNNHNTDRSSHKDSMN
In short: (§1)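 Broad selectivity screen, 50 receptors/ion channels/transporters; test concentrations 1 µM and 10 µM.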

ɣ1 (h) = molecular target: T2, ɣ1 (h) (Homo sapiens, UniProt P25929); conditions: for inhibition at 1 µM: read-out: % Inhibition at 1µM
T2 construct: purchased Cerep
T2 sequence (P25929 1-384): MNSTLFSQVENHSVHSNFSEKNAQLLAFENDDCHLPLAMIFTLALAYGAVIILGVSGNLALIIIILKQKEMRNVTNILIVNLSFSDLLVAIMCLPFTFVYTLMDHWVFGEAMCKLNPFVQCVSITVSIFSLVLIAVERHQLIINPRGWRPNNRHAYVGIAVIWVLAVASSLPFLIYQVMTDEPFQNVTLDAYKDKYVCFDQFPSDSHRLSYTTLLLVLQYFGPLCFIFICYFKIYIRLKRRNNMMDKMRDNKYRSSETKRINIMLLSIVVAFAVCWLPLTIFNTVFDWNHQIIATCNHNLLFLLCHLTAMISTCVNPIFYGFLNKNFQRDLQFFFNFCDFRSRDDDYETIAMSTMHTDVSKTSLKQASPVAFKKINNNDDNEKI
In short: as §1

5HT7 (h) = molecular target: T3, 5HT7 (h) (Homo sapiens, UniProt P34969); conditions: for inhibition at 10 µM: read-out: % Inhibition at 10µM
T3 construct: purchased Cerep
In short: as §1

Ca2+ Channel = tested on: Ca2+ Channel
In short: as §1

SST = tested on: SST
In short: as §1

M2 (h) = molecular target: T4, M2 (h) (Homo sapiens, UniProt P08172)
T4 construct: purchased Cerep
T4 sequence (P08172 1-466): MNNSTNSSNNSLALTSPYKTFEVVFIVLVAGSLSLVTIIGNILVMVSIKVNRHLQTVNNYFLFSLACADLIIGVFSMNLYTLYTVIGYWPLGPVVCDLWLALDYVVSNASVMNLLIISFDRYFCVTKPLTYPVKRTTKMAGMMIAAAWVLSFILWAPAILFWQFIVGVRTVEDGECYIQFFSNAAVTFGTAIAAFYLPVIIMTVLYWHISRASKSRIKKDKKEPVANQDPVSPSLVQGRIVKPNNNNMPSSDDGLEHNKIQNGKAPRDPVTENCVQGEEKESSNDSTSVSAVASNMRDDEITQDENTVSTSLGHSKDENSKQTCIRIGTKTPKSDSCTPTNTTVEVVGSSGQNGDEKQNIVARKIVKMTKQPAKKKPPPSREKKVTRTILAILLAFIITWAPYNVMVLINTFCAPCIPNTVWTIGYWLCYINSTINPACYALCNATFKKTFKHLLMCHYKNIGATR
In short: as §1

T3 sequence (P34969 whole entry): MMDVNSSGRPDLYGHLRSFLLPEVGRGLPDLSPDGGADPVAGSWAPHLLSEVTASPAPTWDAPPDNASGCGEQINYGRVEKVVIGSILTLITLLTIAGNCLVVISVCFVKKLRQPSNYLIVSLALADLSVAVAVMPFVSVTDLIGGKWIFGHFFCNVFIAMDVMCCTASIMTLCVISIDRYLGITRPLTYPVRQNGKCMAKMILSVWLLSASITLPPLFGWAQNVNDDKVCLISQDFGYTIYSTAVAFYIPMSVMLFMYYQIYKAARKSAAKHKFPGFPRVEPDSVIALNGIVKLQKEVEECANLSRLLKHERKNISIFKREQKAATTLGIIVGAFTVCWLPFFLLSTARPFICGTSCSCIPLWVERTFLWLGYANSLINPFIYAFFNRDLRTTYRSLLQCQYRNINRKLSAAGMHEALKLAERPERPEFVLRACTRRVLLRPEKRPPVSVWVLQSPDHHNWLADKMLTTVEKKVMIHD

Row | SMILES | % Inhibition at 10µM (K Channel) | % Inhibition at 1µM (Na+ Channel; 1 µM) | % Inhibition at 10µM (Na+ Channel) | % Inhibition at 10µM (SK+ Ca) | inhibition at 1 µM (ETA (h); ETA (h), 1 µM) | inhibition at 10 µM (ETA (h); ETA (h), 10 µM) | inhibition at 1 µM (ɣ1 (h); ɣ1 (h), 1 µM) | inhibition at 10 µM (ɣ1 (h); ɣ1 (h), 10 µM) | inhibition at 1 µM (5HT7 (h); 5HT7 (h), 1 µM) | inhibition at 10 µM (5HT7 (h); 5HT7 (h), 10 µM) | % Inhibition at 1µM (Ca2+ Channel) | % Inhibition at 10µM (Ca2+ Channel) | % Inhibition at 10µM (SST) | inhibition at 1 µM (M2 (h)) | inhibition at 10 µM (M2 (h)) | % Inhibition at 1µM (SK+ Ca; 1 µM) | inhibition at 10 µM (ETA (h)) | inhibition at 1 µM (ɣ1 (h)) | inhibition at 10 µM (5HT7 (h))
1 | COc1nc2ccc([C@@](O)(c3ccc(C)nc3C)c3cnnn3C)cc2c(Cl)c1Cc1ccc(C(F)(F)F)cc1 [compound A] | 9% | 20% | 45% | 1% | 5% | 4% | 5% | 5% | 4% | 4% | 2% | 32% | 6% | – | – | – | – | – | –
2 | COc1nc2ccc([C@](O)(c3ccc(Cl)cc3)c3cncn3C)cc2c(Cl)c1Cc1ccc(-n2cccn2)cc1 [B] | – | – | 3% | – | – | – | – | – | – | – | 3% | 21% | 1% | 16% | 23% | – | – | – | –
3 | COc1nc2ccc([C@@](O)(c3ccccc3)C3CCN(C(C)=O)CC3)cc2c(Cl)c1Cc1ccc(-n2cccn2)cc1 [C] | 17% | – | – | 5% | – | – | – | – | – | – | – | – | – | – | – | 1% | 12% | – | –
4 | CN(C)c1nc2ccc(C(O)(c3ccncc3)c3cncn3C)cc2c(Cl)c1-c1ccccc1 (stereo not drawn) [compound D] | – | – | – | – | – | – | – | – | – | – | – | – | – | 10% | 47% | – | – | 16% | 16%
